Test results taken from patent publication US10316017B2, “COT modulators and methods of use thereof” (Gilead Sciences, Inc., priority 2015, dated 2019).

Assays:
[1] = target: T1, human Cot catalytic domain (30-397 amino acids) (Homo sapiens, UniProt P41279); assay: High Throughput Cot Biochemical Assay (KinEASE TR-FRET); settings: Cot KinEASE TR-FRET (HTRF) biochemical assay, 400 μM ATP; read-out: IC50 HTRF
T1 construct: Purified recombinant human Cot catalytic domain (30-397 amino acids) was purchased from Cama Biosciences; purchased Cama Biosciences (so in the source)
T1 sequence (P41279 30-397): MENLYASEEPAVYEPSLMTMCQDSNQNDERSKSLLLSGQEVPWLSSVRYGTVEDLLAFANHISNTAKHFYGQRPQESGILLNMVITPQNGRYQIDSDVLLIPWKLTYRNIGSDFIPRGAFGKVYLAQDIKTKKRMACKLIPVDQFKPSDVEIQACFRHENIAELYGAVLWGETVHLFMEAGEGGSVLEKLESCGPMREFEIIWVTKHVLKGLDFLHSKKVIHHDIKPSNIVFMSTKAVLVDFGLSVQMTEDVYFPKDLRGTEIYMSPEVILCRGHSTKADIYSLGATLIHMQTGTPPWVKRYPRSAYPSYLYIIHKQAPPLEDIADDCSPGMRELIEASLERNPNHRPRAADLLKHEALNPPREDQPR
Outline: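 TR-FRET (KinEASE) read-out: Eu-labelled phospho-specific antibody binds XL665-tagged STK3 peptide (1 μM) phosphorylated by 5 nM human Cot kinase domain (residues 30-397). Reaction at 400 μM ATP, pH 7.0 MOPS buffer with 10 mM MgOAc, 1 mM DTT and 0.1% DMSO.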

[2] = test system: TNFα production in LPS-stimulated human monocytes; assay: Cot Monocyte TNFα Cell Based Assay; settings: Homo sapiens, Monocyte, TNFα in LPS-stimulated human monocytes; read-out: EC50 TNF
Outline: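 TNFα release quantified by two-antibody TR-FRET, normalised to unstimulated (0%) and LPS-stimulated (100%) wells. Cells got a 1 h compound exposure at 37° C in 0.5% DMSO before 4 h challenge with 50 pg/ml LPS, at 5,000 cells/well.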

| SMILES | IC50 [1] | EC50 [2] |
| --- | --- | --- |
| [2H][C@](Nc1cc(Cl)c2ncc(C#N)c(NC3(C)CC(F)(F)C3)c2c1)(c1ccc(F)cc1)c1cn(C2CC2)nn1 [Example 212, (S)-8-chloro-6-(((1-cyclopropyl-1H-1,2,3-triazol-4-yl)(4-fluorophenyl)methyl-d)amino)-4-((3,3-difluoro-1-methylcyclobutyl)amino) quinoline-3-carbonitrile] | 0.169 µM | 2.18 µM |
| [2H][C@](Nc1cc(Cl)c2ncc(C#N)c(NC(C)(C)C(C)C)c2c1)(c1ccc(F)cc1)c1cn(C2CC2)nn1 [Example 213, (S)-8-chloro-6-(((1-cyclopropyl-1H-1,2,3-triazol-4-yl)(4-fluorophenyl)methyl-d)amino)-4-((2,3-dimethylbutan-2-yl)amino)quinoline-3-carbonitrile] | 0.024 µM | 0.407 µM |
| [2H][C@](Nc1cc(Cl)c2ncc(C#N)c(NC3(C)COC3)c2c1)(c1ccc(F)cc1)c1cn(C2CC2)nn1 [Example 214, (S)-8-chloro-6-(((1-cyclopropyl-1H-1,2,3-triazol-4-yl)(4-fluorophenyl)methyl-d)amino)-4-((3-methyloxetan-3-yl)amino)quinoline-3-carbonitrile] | 0.151 µM | 4.22 µM |
| [2H][C@](Nc1cc(Cl)c2ncc(C#N)c(NC3CCC3)c2c1)(c1ccc(F)cc1)c1cn(C2CC2)nn1 [Example 215, (S)-8-chloro-4-(cyclobutylamino)-6-(((1-cyclopropyl-1H-1,2,3-triazol-4-yl)(4-fluorophenyl)methyl-d)amino)quinoline-3-carbonitrile] | 0.119 µM | 2.89 µM |
| [2H][C@](Nc1cc(Cl)c2ncc(C#N)c(NC3(CC)CC3)c2c1)(c1ccc(F)cc1)c1cn(C2CC2)nn1 [Example 216, (S)-8-chloro-6-(((1-cyclopropyl-1H-1,2,3-triazol-4-yl)(4-fluorophenyl)methyl-d)amino)-4-((1-ethylcyclopropyl)amino)quinoline-3-carbonitrile] | 0.492 µM | 5.72 µM |
| [2H][C@](Nc1cc(Cl)c2ncc(C#N)c(NC3(C#N)CC3)c2c1)(c1ccc(F)cc1)c1cn(C2CC2)nn1 [Example 217, (S)-8-chloro-4-((1-cyanocyclopropyl)amino)-6-(((1-cyclopropyl-1H-1,2,3-triazol-4-yl)(4-fluorophenyl)methyl-d)amino)quinoline-3-carbonitrile] | 0.327 µM | 3.58 µM |
| [2H][C@](Nc1cc(Cl)c2ncc(C#N)c(NC3(CC)CCC3)c2c1)(c1ccc(F)cc1)c1cn(C2CC2)nn1 [Example 218, (S)-8-chloro-6-(((1-cyclopropyl-1H-1,2,3-triazol-4-yl)(4-fluorophenyl)methyl-d)amino)-4-((1-ethylcyclobutyl)amino)quinoline-3-carbonitrile] | 0.432 µM | 5.39 µM |
| [2H][C@](Nc1cc(Cl)c2ncc(C#N)c(NC3(C)CCC3)c2c1)(c1ccc(F)cc1)c1cn(C2CC2)nn1 [Example 219, (S)-8-chloro-6-(((1-cyclopropyl-1H-1,2,3-triazol-4-yl)(4-fluorophenyl)methyl-d)amino)-4-((1-methylcyclobutyl)amino)quinoline-3-carbonitrile] | 0.534 µM | 4.93 µM |
| [2H][C@](Nc1cc(Cl)c2ncc(C#N)c(NC3CC3)c2c1)(c1ccc(F)cc1)c1cn(C2CC2)nn1 [Example 220, (S)-8-chloro-6-(((1-cyclopropyl-1H-1,2,3-triazol-4-yl)(4-fluorophenyl)methyl-d)amino)-4-(cyclopropylamino)quinoline-3-carbonitrile] | 0.296 µM | 1.62 µM |
| [2H][C@](Nc1cc(C)c2ncc(C#N)c(N[C@H](CC)c3ccccc3)c2c1)(c1ccc(F)cc1)c1cn(C2CC2)nn1 [Example 221, 6-(((S)-(1-cyclopropyl-1H-1,2,3-triazol-4-yl)(4-fluorophenyl)methyl-d)amino)-8-methyl-4-(((R)-1-phenylpropyl)amino)quinoline-3-carbonitrile] | 0.244 µM | 2.52 µM |
| [2H][C@](Nc1cc(Cl)c2ncc(C#N)c(NN(CC)c3ccccc3)c2c1)(c1ccc(F)cc1)c1cn(C2CC2)nn1 [Example 222, (S)-8-chloro-6-(((1-cyclopropyl-1H-1,2,3-triazol-4-yl)(4-fluorophenyl)methyl-d)amino)-4-(2-ethyl-2-phenylhydrazinyl)quinoline-3-carbonitrile] | 8.2 µM | > 10 µM |
| [2H][C@](Nc1cc(Cl)c2ncc(C#N)c(NCC(C)(C)CC)c2c1)(c1ccc(F)cc1)c1cn(C2CC2)nn1 [Example 223, (S)-8-chloro-6-(((1-cyclopropyl-1H-1,2,3-triazol-4-yl)(4-fluorophenyl)methyl-d)amino)-4-((2,2-dimethylbutyl)amino)quinoline-3-carbonitrile] | 0.005 µM | 0.157 µM |
| [2H][C@](Nc1cc(C2CC2)c2ncc(C#N)c(N[C@H](CC)c3ccccc3)c2c1)(c1ccc(F)cc1)c1cn(C2CC2)nn1 [Example 224, 8-cyclopropyl-6-(((S)-(1-cyclopropyl-1H-1,2,3-triazol-4-yl)(4-fluorophenyl)methyl-d)amino)-4-(((R)-1-phenylpropyl)amino)quinoline-3-carbonitrile] | 0.028 µM | 0.397 µM |
| [2H][C@](Nc1cc(Cl)c2ncc(C#N)c(NCC(C)(C)COC)c2c1)(c1ccc(F)cc1)c1cn(C2CC2)nn1 [Example 225, (S)-8-chloro-6-(((1-cyclopropyl-1H-1,2,3-triazol-4-yl)(4-fluorophenyl)methyl-d)amino)-4-((3-methoxy-2,2-dimethylpropyl)amino) quinoline-3-carbonitrile] | 0.038 µM | 0.8 µM |
| [2H][C@](Nc1cc(Cl)c2ncc(C#N)c(NC[C@@H](C)c3ccccc3)c2c1)(c1ccc(F)cc1)c1cn(C2CC2)nn1 [Example 226, 8-chloro-6-(((S)-(1-cyclopropyl-1H-1,2,3-triazol-4-yl)(4-fluorophenyl)methyl-d)amino)-4-(((S)-2-phenylpropyl)amino) quinoline-3-carbonitrile] | 0.016 µM | 0.606 µM |
| [2H][C@](Nc1cc(Cl)c2ncc(C#N)c(N[C@H](C)c3ccccc3)c2c1)(c1ccc(F)cc1)c1cn(C2CC2)nn1 [Example 227, 8-chloro-6-(((S)-(1-cyclopropyl-1H-1,2,3-triazol-4-yl)(4-fluorophenyl)methyl-d)amino)-4-(((R)-1-phenylethyl)amino) quinoline-3-carbonitrile] | 0.011 µM | 0.426 µM |
| [2H][C@@](Nc1cc(Cl)c2ncc(C#N)c(N[C@@H]3CCCC[C@@H]3NC(=O)OC(C)(C)C)c2c1)(c1ccc(F)cc1)c1cn(C2CC2)nn1 [Example 229, tert-butyl ((1S,2R)-2-((8-chloro-3-cyano-6-(((S)-(1-cyclopropyl-1H-1,2,3-triazo1-4-yl)(4-fluorophenyl)methyl-d)amino)quinolin-4-yl)amino)cyclohexyl) carbamate] | 2.61 µM | > 10 µM |
| [2H][C@](Nc1cc(Cl)c2ncc(C#N)c(N[C@H]3CCCC[C@H]3N)c2c1)(c1ccc(F)cc1)c1cn(C2CC2)nn1 [Example 230, 4-(((1S,2R)-2-aminocyclohexyl)amino)-8-chloro-6-(((S)-(1-cyclopropyl-1H-1,2,3-triazol-4-yl)(4-fluorophenyl)methyl-d)amino)quinoline-3-carbonitrile] | 0.337 µM | > 10 µM |
